Source: patent US9549965B2, “Pharmaceutical composition for treating a microbial infection” (HELPERBY THERAPEUTICS LIMITED, priority 2010, dated 2017)
In brackets after ≈: the same amount, converted by molar mass.

Experiments:
[1] = system: clinically latent microorganisms; test: Screening for ability to kill clinically latent microorganisms (method of WO2000028074); assay type: cell-based
Excerpt: International Patent Application, Publication Number WO2000028074 describes a method of screening compounds to determine their ability to kill clinically latent microorganisms. […] This observation has necessitated the development of novel antimicrobials which may be used to kill clinically latent microorganisms.
By way of example, WO2000028074 describes a suitable method of screening compounds to determine their ability to kill clinically latent microorganisms. A typical method may include the following steps: • (1) growing a bacterial culture to stationary phase; • (2) treating the stationary phase culture with one or more antimicrobial agents at a concentration and or time sufficient to kill growing bacteria, thereby selecting a phenotypically resistant sub-population; • (3) incubating a sample of the phenotypically resistant subpopulation with one or more test compounds or agents; and • (4) assessing any antimicrobial effects against the phenotypically resistant subpopulation.

[2] = system: NDM-1 Klebsiella pneumoniae; test: Chequerboard analysis with colistin against NDM-1 Klebsiella pneumoniae; assay type: cell-based
log phase E. coli = test: MIC against log phase E. coli; assay type: cell-based, Escherichia coli; details: Escherichia coli, read-out: MIC
Description: (§1) Escherichia coli K12; Gram negative; Reference strain.
The above-described overnight cultures were diluted (1000×) with iso-sensitest broth. The cultures were then incubated at 37° C. with shaking for 1-2 hours to reach log CFU 6, which served as log phase cultures.
The bactericidal activity of the drugs against log phase cultures were determined by minimal inhibitory concentration (MIC) of the drugs, which is defined as the lowest concentration which inhibits visible growth. Different concentrations of each test compound were incubated with the log-phase cultures in 96 well plates for 24 hours. Bactericidal activity was then examined by taking a spectrophotometer reading (using a plate reader) at 405 nm.

[3] = system: stationary phase P. aeruginosa; test: Bactericidal activity against stationary phase P. aeruginosa; assay type: cell-based, Pseudomonas aeruginosa
Description: Pseudomonas aeruginosa NCTC 6751; Gram negative; Reference strain. Bacteria were grown in 10 ml of nutrient broth (No. 2 (Oxoid)) overnight at 37° C., with continuous shaking at 120 rpm. The overnight cultures were diluted (1000×) in 100 ml of growth medium and then incubated without shaking for 10 days. Viability of the bacteria was estimated by colony forming unit (CFU) counts at 2 hour intervals at the first 24 hours and at 12-24 hours afterwards. From serial 10-fold dilutions of the experimental cultures, 100 μl samples were added to triplicate plates of nutrient agar plates (Oxoid) and blood agar plates (Oxoid). Colony forming units (CFU) were counted after incubation of the plates at 37° C. for 24 hours. Cultures incubated for more than 24 hours are in the stationary phase. For drug screening, 5-6 day old stationary phase cultures were used. Different concentrations of each test compound were incubated with stationary phase cultures (5-6 day cultures) in 96 well plates for 24 or 48 hours. Bactericidal activity was then determined by taking CFU counts of the resulting cultures, as described above.

persistent E. coli = test: Bactericidal activity against persistent E. coli selected by gentamicin; assay type: cell-based, Escherichia coli; details: Escherichia coli, read-out: Log Kill
Description: as §1
An antibiotic (gentamicin) was added to 5-6 day stationary-phase cultures to the final concentration of 50 to 100 μg/ml for 24 hours. After 24 hours of antibiotic treatment, the cells are washed 3 times with phosphate buffered saline (PBS), and then resuspended in PBS. The surviving bacterial cells are used as persisters. Viability is estimated by CFU counts. The persisters were then used in measurements of bactericidal activity for test compounds.
Different concentrations of each test compound were incubated with the (persister) cell suspension in 96 well plates for various periods of time (24 and 48 hours). Bactericidal activity was then determined by taking CFU counts of the resulting cultures, as described above.

stationary phase E. coli = test: Bactericidal activity against stationary phase E. coli (CFU counts); assay type: cell-based, Escherichia coli; details: Escherichia coli, read-out: Log kill
Description: as §1
(§2) Bacteria were grown in 10 ml of nutrient broth (No. 2 (Oxoid)) overnight at 37° C., with continuous shaking at 120 rpm. The overnight cultures were diluted (1000×) in 100 ml of growth medium and then incubated without shaking for 10 days. Viability of the bacteria was estimated by colony forming unit (CFU) counts at 2 hour intervals at the first 24 hours and at 12-24 hours afterwards. From serial 10-fold dilutions of the experimental cultures, 100 μl samples were added to triplicate plates of nutrient agar plates (Oxoid) and blood agar plates (Oxoid). Colony forming units (CFU) were counted after incubation of the plates at 37° C. for 24 hours.
(§3) Cultures incubated for more than 24 hours are in the stationary phase. For drug screening, 5-6 day old stationary phase cultures were used.
(§4) Different concentrations of each test compound were incubated with stationary phase cultures (5-6 day cultures) in 96 well plates for 24 or 48 hours. Bactericidal activity was then determined by taking CFU counts of the resulting cultures, as described above.

[4] = system: stationary phase S. aureus; test: Bactericidal activity against stationary phase S. aureus (CFU counts); assay type: cell-based, Staphylococcus aureus; details: Staphylococcus aureus, read-out: Log Kill
Description: Staphylococcus aureus (Oxford strain); Gram positive; Reference strain.
as §2, §3, §4

Compound: C/C(=C\C(=O)OCCCCCCCCC(=O)O)C[C@@H]1OC[C@H](C[C@@H]2O[C@H]2[C@@H](C)[C@H](C)O)[C@@H](O)[C@H]1O [mupirocin]
- activity against clinically latent microorganisms [1]: little or no activity

Compound: CC(=O)NC[C@H]1CN(c2ccc(N3CCOCC3)c(F)c2)C(=O)O1 [linezolid]
- activity against clinically latent microorganisms [1]: little or no activity

Compound: OC(c1cc(C(F)(F)F)nc2c(C(F)(F)F)cccc12)C1CCCCN1 (stereo not drawn) [Mefloquine]
- spectrophotometer reading ([2]; mefloquine 0.25 mg/L alone): 1.10
- spectrophotometer reading ([2]; mefloquine 0.5 mg/L alone): 1.08
- spectrophotometer reading ([2]; mefloquine 1 mg/L alone): 1.10
- spectrophotometer reading ([2]; mefloquine 2 mg/L alone): 1.09
- spectrophotometer reading ([2]; mefloquine 4 mg/L alone): 1.09
- spectrophotometer reading ([2]; mefloquine 8 mg/L alone): 1.15
- spectrophotometer reading ([2]; mefloquine 16 mg/L alone): 1.10
- spectrophotometer reading ([2]; mefloquine 32 mg/L alone): 0.82
- spectrophotometer reading ([2]; mefloquine 64 mg/L alone): 0.60
- spectrophotometer reading ([2]; mefloquine 128 mg/L alone): 0.33
- spectrophotometer reading ([2]; mefloquine 256 mg/L alone): 0.34
- MIC (log phase E. coli): 10 µg/mL (≈ 26.4 µM)
- log reduction of the bacterium ([3]; 40 μg/ml): about 1.5 log
- organism removed ([3]; 80 μg/ml): more than 10^7
- activity against stationary phase P. aeruginosa ([3]; FIG. 1): active
- log reduction at 6.25 µg/mL (persistent E. coli; 6.25 μg/ml): 0.02
- log reduction at 12.5 µg/mL (persistent E. coli; 12.5 μg/ml): 0.03
- log reduction at 25 µg/mL (persistent E. coli; 25 μg/ml): 6.21
- log reduction at 6.25 µg/mL (stationary phase E. coli; 6.25 μg/ml): 2.48
- log reduction at 12.5 µg/mL (stationary phase E. coli; 12.50 μg/ml): 6.14
- log reduction at 25 µg/mL (stationary phase E. coli; 25.00 μg/ml): 6.14
- log reduction at 6.25 µg/mL ([4]; 6.25 μg/ml): -0.01
- log reduction at 12.5 µg/mL ([4]; 12.5 μg/ml): 6.03
- log reduction at 25 µg/mL ([4]; 25 μg/ml): 6.03

Compound: CC[C@H]1OC(=O)[C@H](C)[C@@H](O[C@H]2C[C@@](C)(OC)[C@@H](O)[C@H](C)O2)[C@H](C)[C@@H](O[C@@H]2O[C@H](C)C[C@H](N(C)C)[C@H]2O)[C@](C)(O)C[C@@H](C)CN(C)[C@H](C)[C@@H](O)[C@]1(C)O [azithromycin]
- activity against clinically latent microorganisms [1]: little or no activity
